Laboratory results taken from patent publication US20240148779A1, “METHODS FOR THE TREATMENT OF PROTEINOPATHIES” (RENATUS INC., priority 2022, published 2024).

How the values were obtained:
SH-SY5Y cells [1] = experiment: Cytotoxicity induced by cyclodextrins in SH-SY5Y cells (CCK-8)
Method: HPBCD oligomer was prepared by using hydroxypropyl-beta-cyclodextrin (HPBCD) monomers with a molar substitution value between 0.4 and 0.8. […] SH-SY5Y cells were maintained using DMEM containing 10% fetal bovine serum, 1% Penicillin-Streptomycin, and retinoic acid (50 μM) to induce differentiation into neuron-like cells. Media was changed total three times (1, 3, and 5 days post-seeding) and the cells were seeded for experiments on the next day. The cells were seeded in a 96-well plate at a density of 5×10^4 cells per well. On the next day, the cells were treated with each cyclodextrin at 2.5 mg/mL, 5 mg/mL, 10 mg/mL, and 20 mg/mL for 24 hours. Cellular viability was measured using Cell Counting Kit-8 (CCK-8) and measuring the absorbance at 450 nm.

TNF-α = experiment: Aβ42 aggregate-induced inflammation, secreted TNF-α by ELISA in SH-SY5Y cells; assay type: cell-based; conditions: Aβ42 25 μM, 24 hours, cyclodextrins 2.5 mg/mL, FIG. 12
Method: The pre-aggregated Aβ42 was treated at a concentration of 25 μM for 24 hours with or without cyclodextrins and enzyme-linked immunosorbent assay (ELISA) was performed to measure inflammatory cytokines secreted by the cells. […] GCD oligomer was prepared by using gamma-cyclodextrin (GCD) monomers.

SH-SY5Y cells [2] = experiment: Cytotoxicity induced by pre-aggregated Aβ42 in SH-SY5Y cells (CCK-8); assay type: cell-based; conditions: Aβ42 25 μM, 48 hours, cyclodextrins 1, 2.5 and 5 mg/mL, FIG. 7
Method: (§1) Amyloid beta 1-42 (Aβ42) was dissolved in distilled water at a concentration of 1 mM, vortexed for 30 seconds, and then incubated at 37° C. for 7 days to induce pre-aggregation. […] ARPE-19 cells were maintained using DMEM/F12 media containing 10% fetal bovine serum, 1% Penicillin-Streptomycin, 1% HEPES, and 2.5 mM L-Glutamine. […] On the next day, the cells were treated with pre-aggregated Aβ42 at a concentration of 25 μM for 48 hours in the presence of cyclodextrins (1, 2.5, and 5 mg/mL).
Then, we investigated the effects of molecular weights of gamma-cyclodextrin oligomers on the cytotoxicity induced by protein aggregates. […] The SH-SY5Y cells were treated with pre-aggregated Aβ42 for 48 hours in the presence of cyclodextrins (5 mg/mL).

ARPE-19 cells = experiment: Cytotoxicity induced by pre-aggregated Aβ42 in ARPE-19 cells (CCK-8); assay type: cell-based; conditions: ARPE-19, Aβ42 25 μM, 48 hours, cyclodextrins 1, 2.5 and 5 mg/mL, FIG. 7
Method: as §1

SH-SY5Y cells [3] = experiment: Cytotoxicity induced by pre-aggregated alpha-synuclein in SH-SY5Y cells; assay type: cell-based; conditions: αSyn 1 μM, 24 hours, cyclodextrins 1, 2.5 and 5 mg/mL, FIG. 8
Method: as §1
Using the SH-SY5Y cells, the cytotoxicity of aggregated alpha-synuclein (αSyn) was evaluated. The cells were treated with pre-aggregated αSyn (1 μM) for 24 hours in the presence of cyclodextrins (1, 2.5, and 5 mg/mL).

SH-SY5Y cells [4] = experiment: Plasma membrane cholesterol extraction in SH-SY5Y cells; assay type: cell-based; conditions: cyclodextrin 20 mg/mL, 37° C., 1 hour, FIG. 11
Method: Since cyclodextrin-mediated cytotoxicity is known to be caused by excessive plasma membrane cholesterol extraction and consequential membrane disruption, we investigated cholesterol extraction from the cells. […] The next day, the cells treated with cyclodextrins at a concentration of 20 mg/mL at 37° C. for 1 hour. The supernatant was collected, centrifuged at a rate of 14,000 g for 30 minutes to remove cell debris and microvesicles, and then the cholesterol concentration in the supernatant was quantified using a Cholesterol Quantification Kit (Sigma Aldrich).

Molecule	cellular viability (SH-SY5Y cells [1]; human, 24 h, 20 mg/mL)	level of secreted TNF-α (TNF-α)	effect on cytotoxicity induced by Aβ42 aggregate (SH-SY5Y cells [2])	effect on cytotoxicity induced by Aβ42 aggregate (ARPE-19 cells)	effect on cytotoxicity induced by αSyn aggregate (SH-SY5Y cells [3])	cellular viability (SH-SY5Y cells [1]; SH-SY5Y, cyclodextrin 20 mg/mL, 24 hours, FIG. 10)	level of plasma membrane cholesterol extraction (SH-SY5Y cells [4])
CC(O)COC[C@H]1O[C@@H]2O[C@H]3[C@H](O)[C@@H](O)[C@@H](O[C@H]4[C@H](O)[C@@H](O)[C@@H](O[C@H]5[C@H](O)[C@@H](O)[C@@H](O[C@H]6[C@H](O)[C@@H](O)[C@@H](O[C@H]7[C@H](O)[C@@H](O)[C@@H](O[C@H]8[C@H](O)[C@@H](O)[C@@H](O[C@H]1[C@H](O)[C@H]2O)O[C@@H]8COCC(C)O)O[C@@H]7COCC(C)O)O[C@@H]6COCC(C)O)O[C@@H]5COCC(C)O)O[C@@H]4COCC(C)O)O[C@@H]3COCC(C)O (stereo partly drawn) [HPBCD, hydroxypropyl-beta-cyclodextrin]	43.25%	did not show significant effect					
hydroxypropyl-gamma-cyclodextrin [HPGCD]		did not show significant effect	did not show such effect	did not show such effect	less effective	81.38%	no significance compared to PBS
